Consider twelve compounds from article PMC6151407 (Molecules : A Journal of Synthetic Chemistry and Natural …, 2017).

Assay [1] relates to AGE formation. Put plainly: Inhibition of AGE formation (bovine serum albumin with fructose and glucose, fluorescence). The class given is biochemical. To be noted: 60 °C for 2 days, pH 7.4, mean ± S.D. (n = 3); for IC50: isolated compounds, read-out: IC50 AGEs Formation. How it is done:
Inhibition of AGE formation was measured with a spectrophotometric method developed previously. All tested samples were dissolved in 10% DMSO at five different final concentrations (10–500 µg/mL for extracts and fractions or 10–500 µM for isolated constituents). The assay mixture contained bovine serum albumin (10 mg/mL), 50 mM phosphate buffer (pH 7.4) with 0.02% sodium azide, and 0.4 M fructose and glucose. The reaction was incubated at 60 °C for 2 days. After incubating, fluorescence was measured at an excitation wavelength of 350 nm and emission of 450 nm in a black 96-well plate. Aminoguanidine (AG), a typical inhibitor of AGE formation, was used as a positive control. The inhibitory activity was calculated with the following formula: (Ac − As/Ac) × 100, where Ac is the fluorescence of the control, and As is the fluorescence of the sample.

The target of assay [2] is T1, electric eel AChE (EC3.1.1.7) (Electrophorus electricus, UniProt O42275).
T1 construct: purchased Sigma-Aldrich Chemical Company (St. Louis, MO, USA)
In words: biochemical. Here is the method: (§1) n-Hexane (Hx), ethyl acetate (EA), n-butanol (BuOH), methanol (MeOH), ethanol (EtOH), and distilled water were used for extraction, fractionation, and open column chromatography. Open column chromatography used Sephadex LH-20 (25–100 μm; Pharmacia, Stockholm, Sweden), MCI CHP 20P (Supelco, St. Louis, MO, USA), and ODS gel (400–500 mesh; Waters, Milford, MA, USA). Dimethyl sulfoxide-d6 (DMSO-d6) and chloroform-d (CDCl3) were used for the NMR solution. MS was performed with ultra-high performance liquid chromatography and high-resolution mass spectrometry (UHPLC-HRMS) coupled with electrospray ionization hybrid linear trap-quadruple-Orbitrap MS (ESI/LTQ-Orbitrap) on an Ultimate 3000 rapid separation liquid chromatography (RSLC) system (Thermo, Darmstadt, Germany). ^1H- and ^13C-nuclear magnetic resonance (NMR) spectra were collected at 600 and 150 MHz, respectively, with a JEOL spectrometer. Chemical shifts are expressed as parts per million (ppm) on the δ scale, and coupling constants (J) are shown in Hertz. HPLC was conducted with Empower Pro 2.0 software (Waters, Milford, MA, USA), and determination was performed with a Waters 2695 system pump and Waters 996 Photodiode array detector (Waters, Milford, MA, USA). The separation column was a Waters Sunfire™ C18 column (4.6 × 250 mm, 5 μm). HPLC-grade solvents, such as acetonitrile (ACN), methanol (MeOH), and distilled water (H2O), were purchased from J. T. Baker® (Phillipsburg, PA, USA). HPLC-grade phosphoric acid and dimethyl sulfoxide (DMSO) were obtained from DEAJUNG Chemical (Siheung, Gyeonggi, Korea). Reagents and solvents including electric eel AChE (EC3.1.1.7), horse serum BChE (EC3.1.1.8), acetylthiocholine iodide (ACh), butyrylthiocholine chloride (BCh), 5,5′-dithiobis [2-nitrobenzoic acid] (DTNB), berberine, bovine serum albumin, aminoguanidine (AG), glucose, and fructose were purchased from Sigma-Aldrich Chemical Company (St. Louis, MO, USA). The BACE1 FRET assay kit (β-secretase) was purchased from PanVera Co. (Madison, WI, USA).
(§2) ChE activity was detected by AChE- or BChE-mediated hydrolysis of […] for 15 min to form thiocholine and the yellow 5-thio-2-nitrobenzoate anion. The result was quantified by measuring the absorbance 412 nm. The assay mixture contained 0.1 M potassium phosphate buffer (pH 7.8), 0.3 U/mL AChE or BChE, 0.5 mM DTNB, 0.6 mM ACh or BCh, and the sample for a total volume of 0.2 mL. All tested samples were dissolved in 10% DMSO at five different final concentrations (10–500 µg/mL for extracts and fractions or 10–500 µM for isolated constituents). The reaction was performed in a 96-well plate. […] Inhibitory activity was calculated with the following formula: (Ac − As/Ac) × 100, where Ac is the change in absorbance for the control after 15 min and As is the change in absorbance for the sample after 15 min.

In assay [3] the target is T2, horse serum BChE (EC3.1.1.8) (Equus caballus, UniProt P81908).
T2 construct: horse serum BChE (EC3.1.1.8); purchased Sigma-Aldrich Chemical Company (St. Louis, MO, USA); host or cells: horse serum
Put plainly: biochemical. Here is the method: as §1, with “(DTNB), berberine, bovine serum albumin, aminoguanidine (AG), glucose, and fructose were purchased from Sigma-Aldrich Chemical Company (St. Louis, MO, USA).” left out
as §2

The target in assay [4] is BACE1 (Homo sapiens, UniProt P56817). In words: BACE1 FRET assay kit (β-secretase) inhibition. The class given is biochemical. To be noted: isolated compounds; 60 min, room temperature, pH 4.5; mean ± S.D. (n = 3). Here is the method:
as §1, with “(DTNB), berberine, bovine serum albumin, aminoguanidine (AG), glucose, and fructose were purchased from Sigma-Aldrich Chemical Company (St. Louis, MO, USA).” left out
BACE1 inhibition was measured with a commercially available spectrophotometric method according to the manufacturer’s recommended protocol. The assay mixture contained 50 mM sodium acetate buffer (pH 4.5), 1.0 U/mL BACE1, substrate (750 nM Rh-[…]-Quencher in 50 mM ammonium bicarbonate), and sample. […] The reaction was incubated for 60 min at room temperature in the dark. BACE1 activity was determined by measuring the proteolysis of two fluorophores (Rh-[…]-Quencher) to form a fluorescent donor (Rh-EVNL) with an excitation of 545 nm and emission of 585 nm in a black 96-well plate. […] Inhibition was calculated with the following formula: (Ac − As/Ac) × 100, where Ac is the change in fluorescence for the control after 60 min, and As is the change in fluorescence for the sample after 60 min.

The mark [5] stands for this setting: isolated compounds, 15 min, pH 7.8, mean ± S.D. (n = 3), read-out: IC50 AChE (converted).
Where [6] appears, read: isolated compounds, 15 min, pH 7.8, mean ± S.D. (n = 3), read-out: IC50 BChE.

In brackets after ≈: the same amount, converted by molar mass. Like-named read-outs stand apart in the source and are kept apart here.

T2 sequence (P81908 whole entry): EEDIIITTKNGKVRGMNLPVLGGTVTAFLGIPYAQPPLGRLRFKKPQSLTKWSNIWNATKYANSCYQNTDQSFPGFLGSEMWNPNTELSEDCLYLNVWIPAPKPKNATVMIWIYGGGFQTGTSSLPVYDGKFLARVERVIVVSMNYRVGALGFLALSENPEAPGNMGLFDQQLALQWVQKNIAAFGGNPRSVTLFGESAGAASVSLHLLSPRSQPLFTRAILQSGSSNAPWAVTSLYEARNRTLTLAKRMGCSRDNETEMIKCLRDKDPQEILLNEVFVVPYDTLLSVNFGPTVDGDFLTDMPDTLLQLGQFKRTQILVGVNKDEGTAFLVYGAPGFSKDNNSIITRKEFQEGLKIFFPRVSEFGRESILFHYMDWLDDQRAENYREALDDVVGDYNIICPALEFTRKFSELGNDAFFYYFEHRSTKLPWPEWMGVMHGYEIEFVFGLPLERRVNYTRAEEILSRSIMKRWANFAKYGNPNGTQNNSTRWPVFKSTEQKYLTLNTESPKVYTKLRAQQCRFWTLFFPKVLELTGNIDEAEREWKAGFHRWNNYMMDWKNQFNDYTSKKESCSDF
T1 sequence (O42275 24-633): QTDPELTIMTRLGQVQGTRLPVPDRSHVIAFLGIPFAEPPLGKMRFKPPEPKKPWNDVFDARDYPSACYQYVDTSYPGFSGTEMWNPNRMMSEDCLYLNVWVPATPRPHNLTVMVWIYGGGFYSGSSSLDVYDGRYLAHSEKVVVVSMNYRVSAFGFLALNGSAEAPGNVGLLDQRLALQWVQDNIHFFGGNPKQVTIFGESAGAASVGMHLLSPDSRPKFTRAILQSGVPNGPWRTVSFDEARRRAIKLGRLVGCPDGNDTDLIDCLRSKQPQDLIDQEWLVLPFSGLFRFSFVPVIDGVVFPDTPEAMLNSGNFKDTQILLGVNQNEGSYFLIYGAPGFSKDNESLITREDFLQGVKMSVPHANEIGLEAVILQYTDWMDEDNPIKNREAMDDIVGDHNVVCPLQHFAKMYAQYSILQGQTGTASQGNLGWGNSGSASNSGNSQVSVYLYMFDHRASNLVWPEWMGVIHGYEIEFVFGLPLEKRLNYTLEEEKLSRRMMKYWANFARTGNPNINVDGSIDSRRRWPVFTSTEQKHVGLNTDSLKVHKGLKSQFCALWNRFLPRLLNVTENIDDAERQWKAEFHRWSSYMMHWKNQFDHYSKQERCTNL
Sequence of BACE1 (P56817 46-501): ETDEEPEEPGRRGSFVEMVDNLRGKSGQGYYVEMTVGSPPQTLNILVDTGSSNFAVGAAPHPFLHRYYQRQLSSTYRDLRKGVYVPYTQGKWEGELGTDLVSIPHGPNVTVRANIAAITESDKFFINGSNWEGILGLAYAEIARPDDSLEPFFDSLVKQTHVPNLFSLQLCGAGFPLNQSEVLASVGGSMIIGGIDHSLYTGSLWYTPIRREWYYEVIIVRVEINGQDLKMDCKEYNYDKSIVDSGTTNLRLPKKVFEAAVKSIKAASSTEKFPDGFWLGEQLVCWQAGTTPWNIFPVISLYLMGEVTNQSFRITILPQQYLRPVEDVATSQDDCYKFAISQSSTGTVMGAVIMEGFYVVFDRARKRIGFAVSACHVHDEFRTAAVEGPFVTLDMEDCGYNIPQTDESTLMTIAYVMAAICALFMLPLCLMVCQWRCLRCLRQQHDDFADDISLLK

In the case of `N=C(N)NN` [AG, aminoguanidine, reference compound], the “IC50 AGE Formation” value in assay [1] (extracts and fractions) was determined as 104.87 ± 6.94 µg/mL (≈ 1420 µM). Also, in assay [1], the IC50 (commonly the point on the concentration scale where inhibition reaches its midpoint) stood at 762 ± 69.1 µM.
Consider `COc1ccc2cc3[n+](cc2c1OC)CCc1cc2c(cc1-3)OCO2` [Berberine, berberine, reference compound], for which the IC50 in assay [2] (extracts and fractions, 15 min, pH 7.8, mean ± S.D. (n = 3), read-out: IC50 AChE (converted)) is 0.416 µM; in assay [2] (setting [5]), 0.42 ± 0.03 µM.
Turning to `COc1c(O)ccc2c1C(=O)c1ccccc1C2=O` [Compound 1, alizarin-1-methyl ether], the IC50 is 292.4 ± 2.28 µM in assay [1], 175 ± 10.7 µM in assay [2] (setting [5]), 450 ± 8.82 µM in assay [3] (setting [6]) and 192 ± 7.32 µM in assay [4].
The corresponding values for `COc1c(O)cc2c(c1OC)C(=O)c1ccccc1C2=O` [Compound 2, 1,2-dimethoxy-3-hydroxy anthraquinone] are 438 ± 23.9 µM, 147 ± 13.3 µM, 442 ± 10.6 µM and 115 ± 21.6 µM.
As to `COc1ccc2c(c1)C(=O)c1ccccc1C2=O` [Compound 3, 2-methoxy anthraquinone], the IC50 in assay [1] was 88.4 ± 3.28 µM; in assay [2] (setting [5]), 187 ± 20.1 µM; in assay [3] (setting [6]) it was 230 ± 5.97 µM; in assay [4], 9.29 ± 1.92 µM.
Turning to `COc1cc2c(cc1CO)C(=O)c1ccccc1C2=O` [Compound 4, 2-hydroxymethyl-3-methoxy anthraquinone], the IC50 in assay [1] is 530 ± 15.5 µM; in assay [2] (setting [5]), 27 ± 1.49 µM; in assay [3] (setting [6]), greater than 500 µM; in assay [4], greater than 200 µM.
As to `O=C1c2ccccc2C(=O)c2cc(CO)c(O)cc21` [Compound 5, 2-hydroxymethyl-3-hydroxy anthraquinone], the IC50 in assay [1] is 355 ± 12 µM; in assay [2] (setting [5]), 19.1 ± 3.58 µM; in assay [3] (setting [6]) it was 459 ± 13.1 µM; in assay [4] it was greater than 200 µM.
The corresponding values for `COc1c(C)c(O)cc2c1C(=O)c1ccccc1C2=O` [Compound 6, rubiadin-1-methyl ether] are greater than 1000 µM, 87.2 ± 6.56 µM, greater than 500 µM and 25.9 ± 2.11 µM.
With `O=C1c2ccccc2C(=O)c2c(O)cc(CO)cc21` [Compound 7, 1-hydroxy-3-hydroxymethyl anthraquinone], the IC50 is 96.4 ± 17.2 µM in assay [2] (setting [5]) and greater than 500 µM in assay [3] (setting [6]).
In the case of `Cc1c(O)cc2c(c1O)C(=O)c1ccccc1C2=O` [Compound 8, rubiadin], the IC50 is 522 ± 10.1 µM in assay [1], 44.3 ± 12.2 µM in assay [2] (setting [5]), greater than 500 µM in assay [3] (setting [6]) and 19.8 ± 3.05 µM in assay [4].
For `COc1cc2ccc(=O)oc2cc1O` [Compound 9, scopoletin] the same measures were 5.43 ± 0.11 µM, 236 ± 21.2 µM, 50.4 ± 1.61 µM and greater than 200 µM.
`CC[C@H](CC[C@@H](C)[C@H]1CC[C@H]2[C@@H]3CC=C4C[C@@H](O)CC[C@]4(C)[C@H]3CC[C@]12C)C(C)C` [Compound 10, β-sitosterol]: the IC50 in assay [2] (IC50 AChE) and in assay [3] (IC50 BChE) was greater than 500 µM each time.
